Tested on: RAW264.7 macrophage cells
Experiment: M2 marker expression in macrophages treated with conditioned medium of MA-treated cancer cells
Format: cell-based
Details: medium harvested from MA-treated (30 µM) cancer cells in hypoxic condition
Description: Total RNA of the cells was isolated using a GeneJET RNA Purification Kit (Thermo Fisher Scientific, Waltham, MA, USA). One microgram of RNA was reverse-transcribed using a RevertAid reverse transcriptase (Thermo Fisher Scientific, Waltham, MA, USA), and single-stranded cDNA was PCR-amplified using AccPower® PCR PreMix (Bioneer, Daejeon, Korea). The qRT-PCR was performed using the QuantiNova™ SYBR®Green PCR Kit (Qiagen, GmbH, Hilden, Germany) and a Qiagen Rotor-Gene® Q Real-Time PCR Detection System according to the manufacturer’s instructions. PCR products were separated using electrophoresis on 1.5% agarose gel containing ethidium bromide in 1 × Tris-acetate buffer and were visualized under UV light.
To investigate the formation of a capillary-like network of human umbilical vein endothelial cells (HUVECs) through the activation of tumor associated macrophages (TAMs) by lactate secreted by cancer cells, a tube formation assay was performed according to a previous study, with several modifications. For the preparation of conditioned media, HT29 colon cancer cells (3.5 × 10^5 cells) suspended in 2 mL of DMEM were seeded on 6-well plates, with or without addition of 30 µM MA, and incubated under normoxic or hypoxic conditions. […]

With `C[C@H](Cc1ccc2c(c1)OCO2)[C@@H](C)Cc1ccc2c(c1)OCO2` [MA, bis(3,4-methylenedioxy)-8,8’-lignan] as the compound, how does the “Arg1, CD206, YM1, and VEGF expression in macrophages” value read?
Its value is “reduction of Arg1, CD206, YM1, and VEGF expression”.

From publication PMC6678097, “Machilin A Inhibits Tumor Growth and Macrophage M2 Polarization Through the Reduction of Lactic Acid” (Cancers, 2019)
